Reference: ChEMBL document CHEMBL1155171, “Synergistic activity of dispersin B and cefamandole nafate in inhibition of staphylococcal biofilm growth on polyurethanes” (Antimicrob Agents Chemother, 2007)
The source made the active and inactive calls. The calls are words filed in the database; no cut-off is given here.

Tests used:
[1] = system: Staphylococcus epidermidis; assay: Antibacterial activity against oxacillin-sensitive Staphylococcus epidermidis ATCC 12228 at 0.25 ug/ml after 18 hrs; type: functional, organism-based
[2] = system: Staphylococcus epidermidis; assay: Antibacterial activity against oxacillin-sensitive Staphylococcus epidermidis ATCC 12228 assessed as reduction in number of viable biofilm associated bacteria in presence of dispersin B; type: functional, organism-based

Cn1nnnc1SCC1=C(C(=O)O)N2C(=O)[C@@H](NC(=O)[C@H](OC=O)c3ccccc3)[C@H]2SC1
Activity [1]: Active
Activity [2]: Active
